Data: patent US5183828A, “Polyhydroxybenzoic acid derivatives” (priority 1990, dated 1993)
Several values for one entry are separate records, joined by “and”; a condition that tells them apart may be missing. Equal entries are not always repeated.

What was measured:
[1] = test system: P-388; assay: antileukemia activity of nitriles vs P-388, Table 8; assay type: in vivo
Description: (§1) Table 8 which follows gives anti-tumor data vs L-1210 and P-388 leukemia for these novel nitriles.

[2] = test system: L1210; assay: antileukemia activity of nitriles vs L1210, Table 8; assay type: in vivo
Description: as §1

[3] = test system: L1210 leukemia; assay: antitumor activity in L1210 leukemia (percent increase in survival time), Table 2; assay type: in vivo, mice; conditions: 8 days
Description: Testing of the compounds of this invention against L-1210 lymphoid leukemia were carried out as follows: L-1210 leukemia was maintained by weekly passage of 10^5 L-1210 cells intraperitoneally into DBA/2 mice. Diluted ascitic fluid, 0.1 ml. (10^5 cells), was administered ip to female B6D2 F1 mice weighing about 20 g. Drugs were administered ip 24 hours after tumor transplantation and injections were continued daily for a total of eight days. A group of control mice receiving only the injection medium were maintained. Table 2 which follows gives the antitumor activity against L-1210 leukemia for certain compounds of this invention. In the table, column 1 gives the name of the compound, column 2 the dose in mg./kg., and column 3 the percent increase in survival time over controls at each dose level.

[4] = molecular target: T1, Δ^5-lipoxygenase (Rattus norvegicus, UniProt P12527); assay: ability to inhibit Δ^5-lipoxygenase; assay type: biochemical; conditions: RBL-1 cell supernatant
T1 construct: supernatant fraction of lysed rat basophilic leukemia (RBL-1) cells; endogenous in cells; host or cells: RBL-1 cells, 49,000 g supernatant of homogenate
T1 sequence (P12527 1-673): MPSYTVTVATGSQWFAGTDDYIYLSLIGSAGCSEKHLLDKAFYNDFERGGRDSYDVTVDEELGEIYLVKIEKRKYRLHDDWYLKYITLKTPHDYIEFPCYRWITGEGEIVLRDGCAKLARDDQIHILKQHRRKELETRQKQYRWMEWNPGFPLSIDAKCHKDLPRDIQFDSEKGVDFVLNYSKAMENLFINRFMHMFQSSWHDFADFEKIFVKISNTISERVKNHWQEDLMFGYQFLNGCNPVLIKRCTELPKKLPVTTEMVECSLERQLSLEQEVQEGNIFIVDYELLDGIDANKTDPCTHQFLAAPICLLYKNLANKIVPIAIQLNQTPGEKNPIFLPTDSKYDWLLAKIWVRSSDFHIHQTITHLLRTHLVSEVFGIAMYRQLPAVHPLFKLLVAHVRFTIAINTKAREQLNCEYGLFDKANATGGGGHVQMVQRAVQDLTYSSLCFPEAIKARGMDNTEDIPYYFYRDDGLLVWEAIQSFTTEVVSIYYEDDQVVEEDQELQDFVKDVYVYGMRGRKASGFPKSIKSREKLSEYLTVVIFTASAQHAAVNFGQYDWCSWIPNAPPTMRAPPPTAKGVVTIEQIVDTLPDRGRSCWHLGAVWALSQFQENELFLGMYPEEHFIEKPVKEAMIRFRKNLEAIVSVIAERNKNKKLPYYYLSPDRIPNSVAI
Description: This enzyme is believed to initiate the synthesis of slow reacting substance of […]), an important mediator in the pathogenesis of asthma. Thus, a drug capable of inhibiting this enzyme would also help to prevent asthmatic attacks. In this determination, Δ^5 -lipoxygenase was derived from the supernatant fraction of lysed rat basophilic leukemia (RBL-1) cells. […] The Δ^5 -lipoxygenase was derived from RBL-1 cells which were lysed by homogenization in ice-cold buffer (50 mM Tris-HCl buffer, pH 7.2, containing 1 mM EDTA and 14 uM indomethacin). The homogenate was centrifuged at 4 ° C. at 49,000 g for 20 min and the resulting supernatant fraction was used as the source of Δ^5 -lipoxygenase. The enzyme was assayed at 37° using 6.7 uM (0.39 uCi/ml) [1-14C]arachidonic acid as the substrate in 50 mM Tris-HCl buffer, pH 7.2, containing 1 mM gluthatione, 3 mM CaCl2, 14 uM indomethacin, and 0.25 to 0.50 mM EDTA. […] The effect of compounds on Δ^5 -lipoxygenase activity was determined by preincubating the enzyme for 10 min at 30° in the presence or absence of various concentrations of the drug prior to addition of substrate.

[5] = free radical scavenging ability (destruction of diphenylpicrylhydrazyl), Table 7; conditions: 100 μM diphenylpicrylhydrazyl in acetone; test compound 25 μM, 2.5 μM (footnote)
Description: It is believed that the antineoplastic activity of the compounds of this invention is due in parts to their ability to scavenge free-radicals. Additionally, the compounds of this invention are cancer protective agents and this utility also may be a manifestation of their free-radical scavenging capability. Free-radical scavenging agents may also be useful in detoxifying mammals in whom an excess of free radicals is a cause and/or result of the toxicity. Other possible uses of free radical scavengers are to inhibit protaglandin transformation, leucotriene interconversion and lipogenesis, to act as inflammatory modulators and as food additive or preservatives to prevent lipid oxidation. The free radical scavenging ability of the compounds of the invention was determined by measuring the destruction of the stable free radical, diphenylpicrylhydrazyl, in the presence of the test compound in a manner similar to that reported by […] and Herzmann, Naturwiss, 47, 133-134 (1960). […] The test compound was added at a final concentration of 25 μM and the rate of reduction of absorpotion at […] was observed. Table 7 below gives the free radical scavenging abilities of the compounds of this invention expresses as the initial rate of decrease in optical density units/min.

[6] = test system: arachidonic acid induced ear edema; assay: arachidonic acid induced ear edema assay, Table 10; assay type: in vivo, Mice; conditions: Experiment 1, 2 mg total dose, topical; for Mean Increase in Weight of Inflammed Ear (± S.E.): positive control 17.0 ± 0.6, p = .000
Description: The compounds of this invention because of their ability to scavenge free-radicals in vivo are capable of modulating inflammation as set forth in the following protocol: Mice received the test compound topically to each side of the right ear one hr prior to the inflammatory challenge, at which time they were challenged (except for the negative control) with 10 microliter of a 2 mg/20 microliter solution of arachidonic acid applied to each side of the right ear. One hour post-challenge, the animals were sacrificed, the right ears removed, and an 8 mm disc punched from each. These discs were then weighed. The following table gives the results of this experiment.

[7] = test system: P388 Leukemia; assay: activity vs P388 leukemia (T/C % survival time), Table 6; assay type: in vivo, mice; conditions: five treatments, >130 significant
Description: The following protocol was used:
CDF1 mice were injected ip with 10^6 cells The drug was administered in the first day after tumor inoculation and continued daily for five treatments. The mean survival time of the treated group compared to the non-treated control group equals T/C×100=T/C percent.

[8] = test system: L-1210 Leukemia; assay: activity vs L-1210 leukemia (T/C % survival time), Table 3; assay type: in vivo, mice; conditions: >130 significant, hydrochloride
Description: 3,4-Dihydroxybenzamidoxime and 3,4,5-trihydroxybenzamidoxime were subjected to a further series of tests against various transplanted tumors in mice according to the following protocols:
For L-1210 lymphoid leukemia, 20 grams CDF1 or BDF1 mice […] ip with 10^5 leukemia cells. The drug was given one day after tumor inoculation continued for an additional eight days. The mean survival time for the treated animal was compared to that of the control group. In the table, column 1 gives the name of the compound, column 2 the dose levels, and column 3 treated over control percent survival time. (In other words, a figure of 175 indicates a 75% increase in survival time.)

N#Cc1cc(O)c(O)c(O)c1 [3,4,5-trihydroxybenzonitrile]
% Increase in Survival Time ([1]; 50 mg/kg): 15% and 20%
% Increase in Survival Time ([1]; 200 mg/kg): 26% and 39%
% Increase in Survival Time ([1]; 400 mg/kg): 26%
% Increase in Survival Time ([2]; 118 mg/kg): 34.0%
% Increase in Survival Time ([2]; 157 mg/kg): 28.0%

Cl.N=C(N)c1cc(O)c(O)c(O)c1 [3,4,5-trihydroxybenzamidine.HCl, 3,4,5-trihydroxybenzamidine-HCl]
ILS at 200 mg/kg ([3]; Mus musculus, L1210, 192 h, 200 mg/kg ip daily): 43.5%
ILS at 300 mg/kg ([3]; Mus musculus, L1210, 192 h, 300 mg/kg ip daily): 10.2%
inhibition at 10 µM [4]: 75%
initial rate of decrease in optical density (518 nm) [5]: 4.912 units/min.
Percent Inhibition vs. positive control [6]: 24%
Mean Increase in Weight of Inflammed Ear (± S.E.) [6]: 13.0 ± 0.3 mg

Cl.NC(=NO)c1cc(O)c(O)c(O)c1 [3,4,5-trihydroxybenzamidoxime.HCl, 3,4,5-Trihydroxybenzamidoxime hydrochloride]
T/C % (mean survival time) ([7]; 50 mg/kg daily, hydrochloride): 142% and 138% and 141%
T/C % (mean survival time) ([7]; 100 mg/kg daily, hydrochloride): 150% and 154% and 138% and 148%
T/C % (mean survival time) ([7]; 200 mg/kg daily, hydrochloride): 155% and 177%
T/C % (mean survival time) ([7]; 300 mg/kg daily): 163%
T/C % (mean survival time) ([7]; 400 mg/kg daily): toxic
% Increase in Survival Time ([3]; 196 mg/kg ip daily): toxic
ILS at 59 mg/kg ([3]; Mus musculus, L1210, 192 h, 59 mg/kg ip daily): 90%
ILS at 132 mg/kg ([3]; Mus musculus, L1210, 192 h, 132 mg/kg ip daily): 54.5%
ILS at 220 mg/kg ([3]; Mus musculus, L1210, 192 h, 220 mg/kg ip daily): 63.6%
ILS at 275 mg/kg ([3]; Mus musculus, L1210, 192 h, 275 mg/kg ip daily): 30.6%
inhibition at 1 µM ([4]; 1 uM): 24%
inhibition at 10 µM [4]: 90%
t/c % (mean survival time) ([8]; 25 mg/kg): 136% and 121%
t/c % (mean survival time) ([8]; 50 mg/kg): 138% and 137%
t/c % (mean survival time) ([8]; 100 mg/kg): 152% and 137%
t/c % (mean survival time) ([8]; 200 mg/kg): 212% and 182%
initial rate of decrease in optical density (518 nm) [5]: 0.929 units/min.
Percent Inhibition vs. positive control [6]: 44%
Mean Increase in Weight of Inflammed Ear (± S.E.) [6]: 9.5 ± 0.3 mg
